Test results: paper PMC7217877, “N-AS-triggered SPMs are direct regulators of microglia in a model of Alzheimer’s disease” (Nature Communications, 2020)
Values joined by “and” are separate entries in the source; they are usually repeats but may differ in a detail not shown here. Equal values may be shown once.

Legend:
SphK1 R185A = biological target: T1, SphK1 R185A (Homo sapiens, UniProt Q9NYA1, R185A); assay: filter binding assay of [3H] acetyl-CoA to SphK1
T1 construct: His (N); made in house
T1 sequence (Q9NYA1 whole entry R185A): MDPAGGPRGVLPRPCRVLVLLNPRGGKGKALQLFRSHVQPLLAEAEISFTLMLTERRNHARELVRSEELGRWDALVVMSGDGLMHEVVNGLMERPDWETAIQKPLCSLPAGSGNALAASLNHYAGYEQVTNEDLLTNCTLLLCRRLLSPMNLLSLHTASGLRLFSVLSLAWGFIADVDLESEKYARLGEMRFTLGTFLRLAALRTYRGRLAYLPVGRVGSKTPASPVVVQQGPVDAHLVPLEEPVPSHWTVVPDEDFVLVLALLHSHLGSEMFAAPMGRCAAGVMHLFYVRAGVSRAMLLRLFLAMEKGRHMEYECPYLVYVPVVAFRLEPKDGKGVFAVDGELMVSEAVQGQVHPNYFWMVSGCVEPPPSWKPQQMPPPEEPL
Excerpt: (§1) Single point mutations in SphK1 (R56A, R57A, R24A, R185A, D178A, and F192A) and COX2 (S565A, N181A, T564A, and S567A) were generated using the In-Fusion Cloning Kits (Clontech) and ORF cDNA expression plasmids of human SphK1 and COX2 gene (Sino Biological Inc, HG15679-NH and HG12036-NH), according to the manufacturer’s instructions. The forward and reverse primers described in Supplementary Table 4. The SphK1 WT, SphK1 mutants, COX2 WT, and COX2 mutant plasmids were transformed in the One shot TOP 10 competent cell (Invitrogen). The bacteria were grown in Luria-Bertani (LB, Invitrogen) plates supplemented with 50 μg ml^−1 kanamycin (Sigma-Aldrich) at 37 °C. The bacterial cell pellets were resuspended in lysis buffer containing 20 mM sodium phosphate (GE Healthcare), 500 mM NaCl (GE Healthcare), 20 mM imidazole (pH 7.4) (GE Healthcare), 0.2 mg ml^−1 lysozyme (Sigma-Aldrich), 20 μg ml^−1 DNase I (Roche), 1 mM MgCl2 (Sigma-Aldrich), and 1 mM PMSF (Sigma-Aldrich) before being lysed by sonication and clarified by centrifugation at 15,493×g for 10 min. Proteins were purified from the soluble fraction using His-Spin Trap columns (GE Healthcare) and the binding and acetylation assays were performed.
(§2) Briefly, SphK1 WT and mutant enzymes (1 mU) were resuspended in 100 μl reaction buffer (20 mM HEPES; pH 7.4, 50 mM NaCl, 10 mM MgCl2, 1 mM EGTA, 0.02% Triton-X100, and 100 μM sphingosine, all from Sigma-Aldrich). […] Briefly, COX2 WT and mutant enzymes (1 mU) were resuspended in 100 μl reaction buffer (20 mM HEPES; pH 7.4, 50 mM NaCl, 10 mM MgCl2, 1 mM EGTA, and 0.02% Triton-X100, all from Sigma-Aldrich). Reactions were initiated by adding [^14C] N-AS (1–200 μM (0.1–20 μCi), ARC UK Ltd, ARC-1024) and incubated at 37 °C for 1 h. The reactions were terminated by adding 100 μl of ice-cold reaction buffer containing 5 mM cold N-AS and immediately filtered through P30 filtermat (Perkin-Elmer), followed by five washes.
(§3) The binding velocity was plotted and the Kcat and KM values were calculated from the Michaelis-Menten analysis using the Sigma-plot program (ver 10.0, Systat software Inc.).

SphK1 R24A = biological target: T2, SphK1 R24A (Homo sapiens, UniProt Q9NYA1, R24A); assay: filter binding assay of [3H] acetyl-CoA to SphK1
T2 construct: His (N); made in house
T2 sequence (Q9NYA1 whole entry R24A): as the sequence (Q9NYA1 whole entry R185A) above, with R24A, A185R counted along it
Excerpt: as §1, §2, §3

SphK1 R56A = biological target: T3, SphK1 R56A (Homo sapiens, UniProt Q9NYA1, R56A); assay: filter binding assay of [3H] acetyl-CoA to SphK1
T3 construct: His (N); made in house
T3 sequence (Q9NYA1 whole entry R56A): as the sequence (Q9NYA1 whole entry R185A) above, with R56A, A185R counted along it
Excerpt: as §1, §2, §3

SphK1 R57A = biological target: T4, SphK1 R57A (Homo sapiens, UniProt Q9NYA1, R57A); assay: filter binding assay of [3H] acetyl-CoA to SphK1
T4 construct: His (N); made in house
T4 sequence (Q9NYA1 whole entry R57A): as the sequence (Q9NYA1 whole entry R185A) above, with R57A, A185R counted along it
Excerpt: as §1, §2, §3

APP/PS1 mice [1] = assay: thioflavin S staining of Aβ plaques in cortex and hippocampus (Fig 6a); type: in vivo, mouse; settings: APP/PS1 + N-AS, individual values
Procedure: Thioflavin S (Sigma-Aldrich) staining was carried out according to previously described procedures. We used 6E10 (mouse, 1:100, Signet, SIG39300), anti-20G10 (mouse, 1:1000, provided by D. R. Howlett, GlaxoSmithKline, Harlow, Essex, UK) for Aβ42, anti-G30 (rabbit, 1:1000, provided by D. R. Howlett) for Aβ40, SMA (mouse, 1:400, Sigma-Aldrich, A2547), AT8 (mouse, 1:500, Thermo Fisher Scientific, MN1020), Caspase-3 (mouse, 1:200, Novus Biologicals, NB100-56708), ac-S565 (rabbit, 1:100), COX2 (mouse, 1:250, Thermo Fisher Scientific, 35-8200), Iba1 (rabbit, 1:500, Wako, 019-19941 and goat, Abcam, ab5076), NeuN (mouse, 1:500, Millipore, MAB177), GFAP (rabbit, 1:500, Dako, N1506 and chicken, 1:500, Abcam, ab4674), and Lamp1 (mouse, 1:200, Abcam, ab24170). The sections were analyzed with a laser-scanning confocal microscope (FV3000; Olympus) or with a BX51 microscope (Olympus). MetaMorph software (Molecular Devices) was used to quantification. Three-dimensional reconstruction of microglia was recorded and analyzed using IMARIS software (Bitplane)[11]. For the analysis of age-dependent microglial COX2^+ CX3CR1^+ cells in WT and APP/PS1 mice, COX2 (rabbit, 1:100, Abcam, ab15191) and CX3CR1 (mouse, 1:100, BioLegend, 149008) antibody were used and the images were acquired on Alexa 488 and APC Channel with performed using Operetta CLS and Analysis Software 4.5 (Perkin-Elmer). […]

APP/PS1 mice [2] = assay: Iba1+ microglia and GFAP+ astrocyte quantification in cortex (Fig 6h,i); type: in vivo, mouse
Procedure: Thioflavin S (Sigma-Aldrich) staining was carried out according to previously described procedures. We used 6E10 (mouse, 1:100, Signet, SIG39300), anti-20G10 (mouse, 1:1000, provided by D. R. Howlett, GlaxoSmithKline, Harlow, Essex, UK) for Aβ42, anti-G30 (rabbit, 1:1000, provided by D. R. Howlett) for Aβ40, SMA (mouse, 1:400, Sigma-Aldrich, A2547), AT8 (mouse, 1:500, Thermo Fisher Scientific, MN1020), Caspase-3 (mouse, 1:200, Novus Biologicals, NB100-56708), ac-S565 (rabbit, 1:100), COX2 (mouse, 1:250, Thermo Fisher Scientific, 35-8200), Iba1 (rabbit, 1:500, Wako, 019-19941 and goat, Abcam, ab5076), NeuN (mouse, 1:500, Millipore, MAB177), GFAP (rabbit, 1:500, Dako, N1506 and chicken, 1:500, Abcam, ab4674), and Lamp1 (mouse, 1:200, Abcam, ab24170). The sections were analyzed with a laser-scanning confocal microscope (FV3000; Olympus) or with a BX51 microscope (Olympus). MetaMorph software (Molecular Devices) was used to quantification. Three-dimensional reconstruction of microglia was recorded and analyzed using IMARIS software (Bitplane)[11]. For the analysis of age-dependent microglial COX2^+ CX3CR1^+ cells in WT and APP/PS1 mice, COX2 (rabbit, 1:100, Abcam, ab15191) and CX3CR1 (mouse, 1:100, BioLegend, 149008) antibody were used and the images were acquired on Alexa 488 and APC Channel with performed using Operetta CLS and Analysis Software 4.5 (Perkin-Elmer).
Transgenic mouse lines over-expressing the hAPP695swe (APP) and presenilin-1M146V (PS1) mutations were originated from GlaxoSmithKline (Harlow, UK)[32] and maintained as described previously. We purchased 5×FAD mice from Jackson Labs (Stock number. 34840-JAX). Because APP/PS1 and 5xFAD mice show sex differences in disease progression, we used only male mice. To examine possible therapeutic effect of N-AS and aspirin in APP/PS1 mice, the N-AS (30 mg kg^−1, Sigma-Aldrich, 01912) was injected daily s.c. for 8 weeks to 7-months-old APP/PS1 mice until the age of 9 months, and aspirin (2 mg kg^−1, Sigma-Aldrich, A5376)[33] was administrated orally to 7-months-old APP/PS1 mice for 8 weeks. […]

[3] = read-out: KM of acetyl-CoA binding to SphK1
[4] = APP/PS1 + N-AS, individual animals

SMILES	Kcat of acetyl-CoA binding to SphK1 (SphK1 R185A)	Km (SphK1 R185A; [3])	Kcat of acetyl-CoA binding to SphK1 (SphK1 R24A)	Km (SphK1 R24A; [3])	Kcat of acetyl-CoA binding to SphK1 (SphK1 R56A)	Km (SphK1 R56A; [3])	Kcat of acetyl-CoA binding to SphK1 (SphK1 R57A)	Km (SphK1 R57A; [3])	area occupied by Aβ plaques (thioflavin S) (APP/PS1 mice [1]; Cortex)	area occupied by Aβ plaques (thioflavin S) (APP/PS1 mice [1]; Hippocampus)	GFAP+ astrocyte quantification (Figure 6i) (APP/PS1 mice [2]; [4])	Iba1+ microglia quantification (Figure 6h) (APP/PS1 mice [2]; [4])	inflammatory response (Iba1+ microglia, GFAP+ astrocyte) (APP/PS1 mice [2]; N-AS vs vehicle APP/PS1)
CC(=O)SCCNC(=O)CCNC(=O)[C@H](O)C(C)(C)COP(=O)(O)OP(=O)(O)OC[C@H]1O[C@@H](n2cnc3c(N)ncnc32)[C@H](O)[C@@H]1OP(=O)(O)O [Acetyl-CoA, acetyl-CoA]	0.000237 s⁻¹	22.8 µM	0.000273 s⁻¹	14.4 µM	0.000203 s⁻¹	40.4 µM	0.000305 s⁻¹	15.4 µM	–	–	–	–	–
CCCCCCCCCCCCC/C=C/[C@@H](O)[C@H](CO)NC(C)=O [N-AS, N-((2S,3R,E)-1,3-Dihydroxyoctadec-4-en-2-yl)acetamide]	–	–	–	–	–	–	–	–	0.5468 and 0.5931 and 0.5106 and 0.2602 and 0.3052 and 0.2223 and 0.2101 and 0.1051	0.3692 and 0.3742 and 0.26 and 0.2921 and 0.4067 and 0.08652 and 0.2333 and 0.1243	2.9 and 1.684 and 2.972 and 1.386 and 1.661 and 0.8495 and 1.293 and 1.379	0.2355 and 0.191 and 0.3245 and 0.8739 and 0.8648 and 0.875 and 0.5574 and 0.579 and 0.4301	improved
